One test can be described thus: cells. In kind it is functional.
Test [1] in a line: THP-1 cell cytotoxicity, dose response, cytotoxicity control, set 3 (AID 504852). It counts as functional. Conditions: Mycobacterium tuberculosis.
The target in test [2] is T1, Insulin-degrading enzyme (Homo sapiens, UniProt P14735).
T1 sequence (P14735 whole entry): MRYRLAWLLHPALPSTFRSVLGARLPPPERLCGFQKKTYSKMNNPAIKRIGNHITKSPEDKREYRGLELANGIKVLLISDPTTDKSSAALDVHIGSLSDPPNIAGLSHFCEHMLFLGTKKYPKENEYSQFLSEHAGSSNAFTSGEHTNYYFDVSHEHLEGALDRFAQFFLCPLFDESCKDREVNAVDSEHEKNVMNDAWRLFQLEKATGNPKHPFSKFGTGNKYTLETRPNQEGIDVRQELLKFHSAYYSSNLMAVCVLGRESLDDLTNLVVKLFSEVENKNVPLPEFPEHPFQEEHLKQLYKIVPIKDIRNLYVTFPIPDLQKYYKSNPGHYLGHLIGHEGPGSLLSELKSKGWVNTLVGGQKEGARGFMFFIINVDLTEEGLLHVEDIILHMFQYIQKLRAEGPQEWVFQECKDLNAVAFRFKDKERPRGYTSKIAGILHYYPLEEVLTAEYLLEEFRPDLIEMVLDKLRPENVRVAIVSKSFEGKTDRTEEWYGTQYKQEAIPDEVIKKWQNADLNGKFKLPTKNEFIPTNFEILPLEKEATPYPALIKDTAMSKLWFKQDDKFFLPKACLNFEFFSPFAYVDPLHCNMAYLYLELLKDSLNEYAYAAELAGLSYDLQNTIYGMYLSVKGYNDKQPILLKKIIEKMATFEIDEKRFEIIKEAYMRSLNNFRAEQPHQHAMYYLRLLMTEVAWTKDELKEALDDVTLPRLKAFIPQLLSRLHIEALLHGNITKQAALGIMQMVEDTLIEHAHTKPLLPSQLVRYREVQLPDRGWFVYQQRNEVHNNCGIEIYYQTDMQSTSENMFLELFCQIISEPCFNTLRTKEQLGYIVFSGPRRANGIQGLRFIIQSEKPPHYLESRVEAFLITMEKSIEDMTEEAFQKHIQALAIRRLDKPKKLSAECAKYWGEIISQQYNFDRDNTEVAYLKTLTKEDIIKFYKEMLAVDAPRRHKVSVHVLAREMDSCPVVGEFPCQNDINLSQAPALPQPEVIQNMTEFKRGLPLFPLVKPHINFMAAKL
The test is described as follows: activators of recombinant IDE enzyme, dose response, counter-screen for IDE activator project, biochemical, fluorescence polarization (AID 588681). (In general: A counterscreen serves to expose hits that act by an unwanted route or on another target.)

For test [3], the target named is T1, Insulin-degrading enzyme. The test is described as follows: activators of endogenous IDE in HEK cells, dose response, cell-based, fluorescence polarization (AID 588439). It counts as functional. In general terms: Fluorescence polarisation rises when a labelled molecule tumbles more slowly, as on binding a larger partner.
In test [4] the target is T2, RNA-binding protein pos-1 (Caenorhabditis elegans, UniProt G5EF15).
T2 sequence (G5EF15 whole entry): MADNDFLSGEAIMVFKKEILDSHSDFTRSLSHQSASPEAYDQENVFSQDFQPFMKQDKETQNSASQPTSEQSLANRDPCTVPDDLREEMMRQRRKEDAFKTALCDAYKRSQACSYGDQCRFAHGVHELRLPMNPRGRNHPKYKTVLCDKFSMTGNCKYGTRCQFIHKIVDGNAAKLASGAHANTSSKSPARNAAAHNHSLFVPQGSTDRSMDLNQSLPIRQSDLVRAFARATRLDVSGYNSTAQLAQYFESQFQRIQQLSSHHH
The test is described as follows: inhibitors of POS-1/mex-3 RNA binding, dose response, biochemical, fluorescence polarization (AID 1964).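 Note: purified POS-1 fused to maltose binding protein made in E. coli; potency of compounds blocking POS-1 binding to fluorescent RNA.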

Test [5] addresses T3, Zinc finger protein mex-5 (Caenorhabditis elegans, UniProt Q9XUB2).
T3 sequence (Q9XUB2 whole entry): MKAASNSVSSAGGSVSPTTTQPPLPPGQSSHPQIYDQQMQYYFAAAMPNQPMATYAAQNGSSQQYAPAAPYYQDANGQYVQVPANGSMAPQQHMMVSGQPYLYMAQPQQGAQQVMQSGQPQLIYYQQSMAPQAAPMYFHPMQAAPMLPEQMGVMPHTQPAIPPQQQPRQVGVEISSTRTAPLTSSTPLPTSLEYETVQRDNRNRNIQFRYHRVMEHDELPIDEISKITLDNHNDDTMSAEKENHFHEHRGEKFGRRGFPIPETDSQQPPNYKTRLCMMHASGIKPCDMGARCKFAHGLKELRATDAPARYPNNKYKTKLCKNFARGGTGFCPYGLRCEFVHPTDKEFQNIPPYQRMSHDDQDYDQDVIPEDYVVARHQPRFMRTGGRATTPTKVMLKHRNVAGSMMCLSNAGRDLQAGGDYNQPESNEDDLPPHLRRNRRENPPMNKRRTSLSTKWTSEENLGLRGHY
In words: MEX-5/TCR-2 RNA interaction inhibitors, dose response, biochemical, C. elegans, fluorescence polarization (AID 1960).

The target of the next test is Keap1/Nrf2 (Homo sapiens, UniProt Q14145). In words: Keap1-Nrf2 protein-protein interaction inhibitors, dose response, biochemical, fluorescence polarization, cherry-picked samples (AID 588683).
The subject of test [6] is HEK293. In words: optical interference in Abeta FP readout, dose response, artefact control for IDE activator project, biochemical, fluorescence polarization (AID 588442). It counts as functional, cell-based. Particulars: Homo sapiens.
Another test addresses T4, ORF 73 (Human herpesvirus 8, UniProt O40947).
T4 sequence (O40947 whole entry): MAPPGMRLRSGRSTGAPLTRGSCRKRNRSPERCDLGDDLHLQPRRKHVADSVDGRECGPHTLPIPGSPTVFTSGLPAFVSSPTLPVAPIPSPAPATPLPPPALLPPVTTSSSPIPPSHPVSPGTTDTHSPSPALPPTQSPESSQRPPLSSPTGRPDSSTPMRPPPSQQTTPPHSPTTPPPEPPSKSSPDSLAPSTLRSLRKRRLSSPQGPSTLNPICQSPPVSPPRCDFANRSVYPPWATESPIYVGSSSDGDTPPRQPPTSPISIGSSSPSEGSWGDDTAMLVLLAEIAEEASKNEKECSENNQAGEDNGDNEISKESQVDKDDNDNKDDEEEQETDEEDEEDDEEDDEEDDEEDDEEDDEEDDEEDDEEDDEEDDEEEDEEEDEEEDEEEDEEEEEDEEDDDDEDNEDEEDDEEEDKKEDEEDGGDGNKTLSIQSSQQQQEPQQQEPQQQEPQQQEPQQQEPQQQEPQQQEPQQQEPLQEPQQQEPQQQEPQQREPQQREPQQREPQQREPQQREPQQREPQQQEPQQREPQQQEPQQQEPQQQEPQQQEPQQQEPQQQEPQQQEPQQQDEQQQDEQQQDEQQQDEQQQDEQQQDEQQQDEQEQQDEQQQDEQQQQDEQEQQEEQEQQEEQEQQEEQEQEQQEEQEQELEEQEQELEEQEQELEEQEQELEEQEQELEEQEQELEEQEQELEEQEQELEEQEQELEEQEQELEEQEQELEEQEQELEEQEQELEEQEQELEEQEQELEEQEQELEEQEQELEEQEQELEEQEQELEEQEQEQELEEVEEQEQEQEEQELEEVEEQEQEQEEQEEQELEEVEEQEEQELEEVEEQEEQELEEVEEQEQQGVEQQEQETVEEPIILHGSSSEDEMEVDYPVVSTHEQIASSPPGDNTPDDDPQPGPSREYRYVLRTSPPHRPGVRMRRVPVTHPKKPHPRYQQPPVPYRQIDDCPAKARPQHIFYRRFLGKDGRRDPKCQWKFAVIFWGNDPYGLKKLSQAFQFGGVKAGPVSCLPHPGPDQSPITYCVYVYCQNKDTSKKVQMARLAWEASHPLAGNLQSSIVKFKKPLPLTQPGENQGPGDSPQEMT
The test is described as follows: inhibitors of C-LANA binding to LBS DNA, dose response, biochemical, fluorescence polarization, cherry-picked samples (AID 504725).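 Note: fluorescence polarization of a labeled DNA duplex reporting LANA DNA binding; potency is for inhibitors that block LANA binding to the DNA.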 On the set-up: species or system Human gammaherpesvirus 8.

Test [7] has as its target Beta-lactamase (Pseudomonas aeruginosa, UniProt Q79MP6).
In test [8] the test system is HEK293. In words: HEK cell cytotoxicity by LDH release, dose response, cytotoxicity control for IDE activator project, fluorescence, HEK cells (AID 588440).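 Note: cytotoxicity by LDH release measuring loss of membrane integrity.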 It counts as functional, cell-based. Particulars: Homo sapiens. (Release of lactate dehydrogenase indicates damage to the cell membrane.)
Test [9] has as its target Beta-lactamase (Salmonella choleraesuis (strain SC-B67), UniProt Q5J463).
Test [10] addresses Sphingosine 1-phosphate receptor 4 (Homo sapiens, UniProt O95977). The test is described as follows: Late-stage fluorescence-based dose-response cell-based counterscreen assay to identify agonists of the Sphingosine 1-Phosphate Receptor 3 (S1P3): Sphingosine 1-Phosphate Receptor 4 (S1P4) agonist assay. It counts as functional.
In test [11] the target is Sphingosine 1-phosphate receptor 2 (Homo sapiens, UniProt O95136). In words: Late-stage fluorescence-based dose-response cell-based counterscreen assay to identify agonists of the Sphingosine 1-Phosphate Receptor 3 (S1P3): Sphingosine 1-Phosphate Receptor 2 (S1P2) agonist assay. In kind it is functional.
The test system of the next test is CHO-K1. The test is described as follows: Counterscreen for antagonists of the orexin 1 receptor (OX1R; HCRTR1): Homogeneous time resolved fluorescence (HTRF)-based cell-based dose response assay to identify antagonists of the parental CHO-K1 cell line. [Related pubchem assays (depositor defined):AID434989, AID435008, AID463079, AID485270, AID492963, AID492964, AID492965, AID493232, AID504699, AID504701]. In kind it is functional. Particulars: Cricetulus griseus.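 Note: potency for inhibition of ATP-stimulated IP1 production as antagonists.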

Test [12] in a line: Counterscreen for antagonists of the orexin 1 receptor (OX1R; HCRTR1): Fluorescence-based cell-based high throughput dose response assay to identify antagonists of the parental CHO cell line. [Related pubchem assays (depositor defined):AID434989, AID435008, AID463079, AID485270, AID492963, AID492964, AID492965, AID493232, AID504699, AID504701]. It counts as functional.
The target in test [13] is T5, Orexin/Hypocretin receptor type 1 (Homo sapiens, UniProt O43613). The test is described as follows: Homogeneous Time Resolved Fluorescence (HTRF)-based cell-based high throughput dose response assay for antagonists of the orexin 1 receptor (OX1R; HCRTR1). [Related pubchem assays (depositor defined):AID434989, AID435008, AID463079, AID485270, AID492963, AID492964, AID492965, AID493232, AID504717, AID504718]. It counts as functional.

For test [14], the target named is T6, Orexin receptor type 2 (Homo sapiens, UniProt O43614). The test is described as follows: Counterscreen assay for antagonists of the orexin 1 receptor (OX1R; HCRTR1): Homogeneous Time Resolved Fluorescence (HTRF)-based cell-based dose response assay for antagonists of the orexin 2 receptor (OX2R; HCRTR2), run by assay provider. In kind it is functional.
Test [15] deals with T6, Orexin receptor type 2. In words: Counterscreen assay for antagonists of the orexin 1 receptor (OX1R; HCRTR1): Fluorescence-based cell-based dose response assay for antagonists of the orexin 2 receptor (OX2R; HCRTR2), run by assay provider. In kind it is functional.
Test [16] has as its target T5, Orexin/Hypocretin receptor type 1. In words: Fluorescence-based cell-based high throughput dose response assay for antagonists of the orexin 1 receptor (OX1R; HCRTR1). [Related pubchem assays (depositor defined):AID434989, AID435008, AID463079, AID485270, AID492963, AID492964, AID492965, AID493232, AID504717, AID504718]. It counts as functional.

These results are taken from ChEMBL document CHEMBL1201862, “PubChem BioAssay data set” (2004).

Structures are written as SMILES. Calls of active or inactive are those of the source.

T6 sequence (O43614 whole entry): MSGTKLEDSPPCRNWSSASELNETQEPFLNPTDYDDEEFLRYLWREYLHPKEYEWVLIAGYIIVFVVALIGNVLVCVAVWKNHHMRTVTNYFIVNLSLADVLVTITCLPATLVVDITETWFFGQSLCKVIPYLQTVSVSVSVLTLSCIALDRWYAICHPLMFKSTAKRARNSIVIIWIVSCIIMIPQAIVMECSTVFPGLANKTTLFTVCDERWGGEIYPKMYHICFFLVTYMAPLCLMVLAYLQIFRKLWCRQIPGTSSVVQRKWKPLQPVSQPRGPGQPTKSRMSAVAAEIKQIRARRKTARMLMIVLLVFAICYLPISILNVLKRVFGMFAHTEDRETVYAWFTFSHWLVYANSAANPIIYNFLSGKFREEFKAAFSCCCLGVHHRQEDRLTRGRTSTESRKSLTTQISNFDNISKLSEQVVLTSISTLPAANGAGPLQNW
T5 sequence (O43613 whole entry): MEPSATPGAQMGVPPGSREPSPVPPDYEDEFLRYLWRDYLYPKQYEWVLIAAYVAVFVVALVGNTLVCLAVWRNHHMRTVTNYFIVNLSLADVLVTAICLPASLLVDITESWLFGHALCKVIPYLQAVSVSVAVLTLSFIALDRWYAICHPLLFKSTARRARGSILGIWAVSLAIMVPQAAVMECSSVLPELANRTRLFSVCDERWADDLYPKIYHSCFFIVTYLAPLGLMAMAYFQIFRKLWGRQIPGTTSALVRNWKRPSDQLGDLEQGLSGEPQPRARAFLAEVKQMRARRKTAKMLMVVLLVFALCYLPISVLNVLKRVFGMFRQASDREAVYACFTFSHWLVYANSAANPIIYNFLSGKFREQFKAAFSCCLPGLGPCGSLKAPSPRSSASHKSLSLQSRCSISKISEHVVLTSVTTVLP
Sequence of Sphingosine 1-phosphate receptor 2 (O95136 whole entry): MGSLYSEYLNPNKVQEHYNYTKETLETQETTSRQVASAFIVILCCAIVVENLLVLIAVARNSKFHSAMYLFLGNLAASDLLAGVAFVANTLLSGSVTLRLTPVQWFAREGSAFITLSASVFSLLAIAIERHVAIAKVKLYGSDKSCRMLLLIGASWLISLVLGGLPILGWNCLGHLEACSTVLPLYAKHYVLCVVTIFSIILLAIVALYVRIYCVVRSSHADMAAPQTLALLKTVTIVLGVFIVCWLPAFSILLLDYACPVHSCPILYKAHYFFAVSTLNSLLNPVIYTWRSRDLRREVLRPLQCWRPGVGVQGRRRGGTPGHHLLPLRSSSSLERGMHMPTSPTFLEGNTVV
Sequence of Sphingosine 1-phosphate receptor 4 (O95977 whole entry): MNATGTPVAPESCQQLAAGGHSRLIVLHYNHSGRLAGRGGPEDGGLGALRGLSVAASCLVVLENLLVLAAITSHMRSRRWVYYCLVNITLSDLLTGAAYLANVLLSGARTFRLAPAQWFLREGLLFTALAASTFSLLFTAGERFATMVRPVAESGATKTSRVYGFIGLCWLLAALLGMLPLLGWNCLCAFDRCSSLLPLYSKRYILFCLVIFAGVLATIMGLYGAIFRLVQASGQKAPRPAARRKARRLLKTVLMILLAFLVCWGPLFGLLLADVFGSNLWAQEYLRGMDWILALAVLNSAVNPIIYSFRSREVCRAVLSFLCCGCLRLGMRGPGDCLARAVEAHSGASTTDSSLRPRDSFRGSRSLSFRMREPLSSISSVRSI
Sequence of Beta-lactamase (Salmonella choleraesuis (strain SC-B67), UniProt Q5J463) (Q5J463 whole entry): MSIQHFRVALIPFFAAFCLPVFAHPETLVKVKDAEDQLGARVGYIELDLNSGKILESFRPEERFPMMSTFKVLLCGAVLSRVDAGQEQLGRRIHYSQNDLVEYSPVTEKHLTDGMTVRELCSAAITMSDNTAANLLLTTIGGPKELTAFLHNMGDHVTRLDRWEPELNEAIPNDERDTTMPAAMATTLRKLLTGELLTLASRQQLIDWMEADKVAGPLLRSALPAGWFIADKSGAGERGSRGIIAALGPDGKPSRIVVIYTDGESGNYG
Sequence of Beta-lactamase (Pseudomonas aeruginosa, UniProt Q79MP6) (Q79MP6 whole entry): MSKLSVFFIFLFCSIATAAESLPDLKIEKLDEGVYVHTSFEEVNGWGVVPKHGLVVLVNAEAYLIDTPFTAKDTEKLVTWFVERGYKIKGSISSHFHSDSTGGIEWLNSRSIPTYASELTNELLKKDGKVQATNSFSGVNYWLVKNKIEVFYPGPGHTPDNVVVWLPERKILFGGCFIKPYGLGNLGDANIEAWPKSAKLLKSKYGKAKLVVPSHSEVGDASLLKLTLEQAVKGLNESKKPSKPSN
Sequence of Keap1/Nrf2 (Q16236 whole entry): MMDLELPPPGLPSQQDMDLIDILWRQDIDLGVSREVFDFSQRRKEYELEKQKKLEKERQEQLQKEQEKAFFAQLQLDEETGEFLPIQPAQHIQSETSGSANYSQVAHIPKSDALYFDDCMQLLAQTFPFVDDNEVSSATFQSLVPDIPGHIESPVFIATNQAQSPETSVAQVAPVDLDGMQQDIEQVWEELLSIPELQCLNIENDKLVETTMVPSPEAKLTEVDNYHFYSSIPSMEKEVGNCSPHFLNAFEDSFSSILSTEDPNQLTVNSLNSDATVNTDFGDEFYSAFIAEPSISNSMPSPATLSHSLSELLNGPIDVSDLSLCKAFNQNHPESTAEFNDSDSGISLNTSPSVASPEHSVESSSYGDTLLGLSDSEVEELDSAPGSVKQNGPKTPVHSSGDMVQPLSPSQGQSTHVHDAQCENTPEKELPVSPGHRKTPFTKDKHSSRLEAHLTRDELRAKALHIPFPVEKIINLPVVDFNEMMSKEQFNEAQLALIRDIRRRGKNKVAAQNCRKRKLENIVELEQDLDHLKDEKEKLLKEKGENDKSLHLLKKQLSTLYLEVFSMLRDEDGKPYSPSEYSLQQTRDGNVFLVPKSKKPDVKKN
Sequence of Keap1/Nrf2 (Q14145 whole entry): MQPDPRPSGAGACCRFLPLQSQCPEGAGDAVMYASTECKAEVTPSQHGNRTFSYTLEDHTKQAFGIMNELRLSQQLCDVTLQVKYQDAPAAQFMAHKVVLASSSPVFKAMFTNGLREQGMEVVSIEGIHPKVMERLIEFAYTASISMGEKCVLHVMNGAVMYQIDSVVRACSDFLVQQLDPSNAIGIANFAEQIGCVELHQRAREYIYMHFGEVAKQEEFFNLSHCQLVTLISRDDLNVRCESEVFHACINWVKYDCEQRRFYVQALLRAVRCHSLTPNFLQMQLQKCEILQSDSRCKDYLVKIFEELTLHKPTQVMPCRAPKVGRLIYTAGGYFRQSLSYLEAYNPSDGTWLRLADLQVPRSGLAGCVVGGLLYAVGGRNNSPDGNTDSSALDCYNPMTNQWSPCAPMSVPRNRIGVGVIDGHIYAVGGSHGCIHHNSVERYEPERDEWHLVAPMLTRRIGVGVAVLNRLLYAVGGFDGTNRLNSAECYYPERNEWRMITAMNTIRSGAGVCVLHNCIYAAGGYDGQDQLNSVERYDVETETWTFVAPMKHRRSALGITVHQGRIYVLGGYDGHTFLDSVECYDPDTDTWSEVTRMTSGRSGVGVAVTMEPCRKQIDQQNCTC

For orientation: IC50 means the concentration needed to halve the response being measured. Broadly, the CC50 is the concentration giving 50% cytotoxicity. Turning to `Cc1ccc(NC(=O)COC(=O)CCc2c[nH]c3ccccc23)cc1[N+](=O)[O-]`, in the test “cells”, the IC50 was 1.84 µM (active). Also, in [1], the CC50 is > 100 µM (active).

A word on the EC50: it is the concentration needed to bring the measured effect to its halfway point. What is called AC50 is the concentration at which the activity in the assay is half-maximal. Take `O=C1c2cccc3c(O)ccc(c23)C(=O)N1c1ccc(Cl)cc1`: the EC50 on Insulin-degrading enzyme [2] was > 54.7 µM (inactive); at Insulin-degrading enzyme [3], > 54.7 µM (inactive); in test [4] it was 7.11 µM (inconclusive); in [5], 289 nM (inconclusive); in the test with HEK293 [6] it was > 54.7 µM (inactive). Besides, the AC50 at Keap1/Nrf2 is 2.53 µM (active); on ORF 73, 1.93 µM (active). Further, the IC50 on Beta-lactamase [7] is 19.8 µM (inactive); with HEK293 [8] it was > 89.2 µM (inactive); at Beta-lactamase [9], 7.95 µM (active).

With `CC1CCCCC1N(C(=O)c1cc(C2CC2)on1)C1CCCC1` (stereo not given), the EC50 in [10] and in test [11] was > 50 µM (inactive) in each case.

Turning to `Cc1ccc(C)n1-c1nn(S(=O)(=O)c2cccc3cccnc23)c2cccc(F)c12`, the IC50 was > 66.2 µM (inactive) in the test on CHO-K1; > 49.8 µM (inactive) in test [12]; 1.93 µM (active) in [13]; > 50 µM (inactive) on Orexin receptor type 2 [14]; 29.3 µM (inactive) on Orexin receptor type 2 [15]; 45 µM (inactive) in test [16].
